According to US20070093520A1, “Method of treatment of diarrhea-predominant irritable bowel syndrome in a subject” (priority 2005, published 2007):

System: diarrhea-predominant IBS subjects
Assay: 3007 Study: open-label 52-week safety study, adverse events and withdrawals
Conditions: Overall

Compound: Cc1nccn1C[C@H]1CCc2c(c3cccc4c3n2CCC4)C1=O [cilansetron, (R)-(−)-4,5,6,8,9,10-hexahydro-10-[(2-methyl-1H-imidazol-1-yl)methyl]-11H-pyrido-[3,2,1-jk]-carbazol-11-one]
- TEAE: Paranasal Sinus Disorders (Excl Infections and Neoplasms): 9 (2%) n (%)
- TEAE: Paranasal Sinus Hypersecretion: 1 (<1%) n (%)
- TEAE: Parkinson's Disease NOS: 1 (<1%) n (%)
- TEAE: Parkinson's Disease and Parkinsonism: 1 (<1%) n (%)
- TEAE: Partial Vision Loss: 1 (<1%) n (%)
- TEAE: Pelvic Pain NOS: 2 (<1%) n (%)
- TEAE: Penile Disorders NEC (Excl Erection and Ejaculation)*: 1 (<1%) n (%)
- TEAE: Penile Haemorrhage*: 1 (<1%) n (%)
- TEAE: Perception Disturbances: 1 (<1%) n (%)
- TEAE: Periorbital Haematoma: 1 (<1%) n (%)
- TEAE: Peripheral Embolism NOS: 1 (<1%) n (%)
- TEAE: Peripheral Embolism and Thrombosis: 1 (<1%) n (%)
- TEAE: Peripheral Swelling: 1 (<1%) n (%)
- TEAE: Peripheral Vascular Disorders NEC: 2 (<1%) n (%)
- TEAE: Pharyngitis: 6 (1%) n (%)
- TEAE: Pharyngitis Streptococcal: 7 (1%) n (%)
- TEAE: Physical Examination Procedures: 9 (2%) n (%)
- TEAE: Plantar Fasciitis: 4 (<1%) n (%)
- TEAE: Pneumonia Mycoplasmal: 1 (<1%) n (%)
- TEAE: Pneumonia NOS: 2 (<1%) n (%)
- TEAE: Polydipsia: 1 (<1%) n (%)
- TEAE: Polyuria: 1 (<1%) n (%)
- TEAE: Popliteal Bursitis: 1 (<1%) n (%)
- TEAE: Post Procedural Discomfort: 2 (<1%) n (%)
- TEAE: Post Procedural Pain: 6 (1%) n (%)
- TEAE: Posterior Capsule Opacification: 1 (<1%) n (%)
- TEAE: Postnasal Drip: 1 (<1%) n (%)
- TEAE: Pregnancy NOS*: 1 (<1%) n (%)
- TEAE: Pregnancy, Puerperium and Perinatal Conditions: 1 (<1%) n (%)
- TEAE: Premenopause*: 1 (<1%) n (%)
- TEAE: Premenstrual Syndrome*: 1 (<1%) n (%)
- TEAE: Proctalgia: 4 (<1%) n (%)
- TEAE: Productive Cough: 1 (<1%) n (%)
- TEAE: Prostate and Seminal Vesicles Infections and Inflammations*: 3 (2%) n (%)
- TEAE: Prostatitis*: 3 (2%) n (%)
- TEAE: Protein Urine Present: 3 (<1%) n (%)
- TEAE: Proteinuria: 1 (<1%) n (%)
- TEAE: Pruritus Ani: 1 (<1%) n (%)
- TEAE: Pruritus NEC: 4 (<1%) n (%)
- TEAE: Pruritus NOS: 4 (<1%) n (%)
- TEAE: Psoriasis: 1 (<1%) n (%)
- TEAE: Psychiatric Disorders: 32 (6%) n (%)
- TEAE: Psychotic Disorder NEC: 1 (<1%) n (%)
- TEAE: Psychotic Disorder NOS: 1 (<1%) n (%)
- TEAE: Purine Metabolism Disorders NEC: 2 (<1%) n (%)
- TEAE: Pyrexia: 3 (<1%) n (%)
- TEAE: Rash Macular: 2 (<1%) n (%)
- TEAE: Rash NOS: 6 (1%) n (%)
- TEAE: Rashes, Eruptions and Exanthems NEC: 8 (1%) n (%)
- TEAE: Rate and Rhythm Disorders NEC: 4 (<1%) n (%)
- TEAE: Rectal Cramps: 1 (<1%) n (%)
- TEAE: Rectal Disorder NOS: 1 (<1%) n (%)
- TEAE: Rectal Haemorrhage: 8 (1%) n (%)
- TEAE: Rectal Tenesmus: 2 (<1%) n (%)
- TEAE: Red Blood Cell Analyses: 1 (<1%) n (%)
- TEAE: Red Blood Cells Urine: 1 (<1%) n (%)
- TEAE: Refractive Errors NOS: 1 (<1%) n (%)
- TEAE: Refractive and Accommodative Disorders: 1 (<1%) n (%)
- TEAE: Renal Bruit: 1 (<1%) n (%)
- TEAE: Renal Function Analyses: 4 (<1%) n (%)
- TEAE: Renal Lithiasis: 3 (<1%) n (%)
- TEAE: Renal and Urinary Disorders: 17 (3%) n (%)
- TEAE: Reproductive Organ and Breast Histopathology Procedures: 1 (<1%) n (%)
- TEAE: Reproductive System and Breast Disorders: 24 (4%) n (%)
- TEAE: Reproductive Tract Signs and Symptoms NEC: 3 (<1%) n (%)
- TEAE: Respiratory Tract Congestion: 2 (<1%) n (%)
- TEAE: Respiratory Tract Disorders NEC: 2 (<1%) n (%)
- TEAE: Respiratory Tract Infection NOS: 1 (<1%) n (%)
- TEAE: Respiratory, Thoracic and Mediastinal Disorders: 46 (9%) n (%)
- TEAE: Retinal Detachment: 1 (<1%) n (%)
- TEAE: Retinal Structural Change, Deposit and Degeneration: 1 (<1%) n (%)
- TEAE: Rheumatoid Arthritis: 1 (<1%) n (%)
- TEAE: Rheumatoid Arthritis Aggravated: 1 (<1%) n (%)
- TEAE: Rheumatoid Arthropathies: 2 (<1%) n (%)
- TEAE: Rhinitis Allergic NOS: 4 (<1%) n (%)
- TEAE: Rhinitis NOS: 3 (<1%) n (%)
- TEAE: Rhinitis Seasonal: 1 (<1%) n (%)
- TEAE: Rhinoviral Infections: 28 (5%) n (%)
- TEAE: Rib Fracture: 1 (<1%) n (%)
- TEAE: Road Traffic Accident: 1 (<1%) n (%)
- TEAE: Rosacea: 1 (<1%) n (%)
- TEAE: Rosaceas: 1 (<1%) n (%)
- TEAE: Rotator Cuff Syndrome: 1 (<1%) n (%)
- TEAE: Seasonal Allergy: 5 (<1%) n (%)
- TEAE: Seizures and Seizure Disorders NEC: 1 (<1%) n (%)
